According to patent publication US12043632B2, “6-heteroaryloxy benzimidazoles and azabenzimidazoles as JAK2 inhibitors” (Ajax Therapeutics, Inc., priority 2020, dated 2024):

Molecular target: T1, JAK2 (JH1domain-catalytic, Y1007F,Y1008F) kinase (Homo sapiens, UniProt O60674, Y1007F/Y1008F)
T1 construct: JAK2 (JH1domain-catalytic, Y1007F,Y1008F) kinase was expressed as N-terminal fusion; made in house; host or cells: transiently transfected HEK293 cells
Assay: JAK2 JH1 Domain Binding Assay
Details: qPCR readout

T1 sequence (O60674 849-1124 Y1007F/Y1008F limits assumed): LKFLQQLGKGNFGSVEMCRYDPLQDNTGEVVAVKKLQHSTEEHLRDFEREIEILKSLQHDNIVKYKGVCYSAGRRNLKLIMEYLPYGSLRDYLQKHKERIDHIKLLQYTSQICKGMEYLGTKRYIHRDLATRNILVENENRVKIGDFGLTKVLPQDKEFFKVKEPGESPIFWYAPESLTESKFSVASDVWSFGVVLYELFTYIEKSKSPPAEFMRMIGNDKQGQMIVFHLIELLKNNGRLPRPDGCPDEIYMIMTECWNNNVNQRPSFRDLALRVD

| SMILES | Kd [µM] |
| --- | --- |
| Cn1cc(C(F)(F)F)cc(Nc2nc3ncc(Oc4cnn5cc(OCCN6CCOCC6)ncc45)c(C#N)c3n2C)c1=O [Example I-377, 1-methyl-2-((1-methyl-2-oxo-5-(trifluoromethyl)-1,2-dihydropyridin-3-yl)amino)-6-((6-(2-morpholinoethoxy)pyrazolo[1,5-a]pyrazin-3-yl)oxy)-1H-imidazo[4,5-b]pyridine-7-carbonitrile] | < 0.01 |
| COc1n[nH]c2ncc(Oc3cnc4nc(Nc5cc6n(n5)CCCC6(F)F)n(C)c4c3C#N)cc12 [Example I-378, 2-((4,4-difluoro-4,5,6,7-tetrahydropyrazolo[1,5-a]pyridin-2-yl)amino)-6-((3-methoxy-1H-pyrazolo[3,4-b]pyridin-5-yl)oxy)-1-methyl-1H-imidazo[4,5-b]pyridine-7-carbonitrile] | < 0.01 |
| CNc1cc(F)c2c(Oc3cnc4nc(Nc5cc(C(F)(F)F)cn(C)c5=O)n(C)c4c3C#N)cnn2c1 [Example I-395, 6-((4-fluoro-6-(methylamino)pyrazolo[1,5-a]pyridin-3-yl)oxy)-1-methyl-2-((1-methyl-2-oxo-5-(trifluoromethyl)-1,2-dihydropyridin-3-yl)amino)-1H-imidazo[4,5-b]pyridine-7-carbonitrile] | < 0.01 |
| CNc1cn2ncc(Oc3cnc4nc(Nc5cc(C(F)(F)F)cn(C)c5=O)n(C)c4c3C#N)c2c(C)n1 [Example I-396, 1-methyl-2-((1-methyl-2-oxo-5-(trifluoromethyl)-1,2-dihydropyridin-3-yl)amino)-6-((4-methyl-6-(methylamino)pyrazolo[1,5-a]pyrazin-3-yl)oxy)-1H-imidazo[4,5-b]pyridine-7-carbonitrile] | 0.01 to 0.05 |
| Cn1cc(C(F)(F)F)cc(Nc2nc3ncc(Oc4cnn5cc(OCCO)ncc45)c(Cl)c3n2C)c1=O [Example I-397, 3-((7-chloro-6-((6-(2-hydroxyethoxy)pyrazolo[1,5-a]pyrazin-3-yl)oxy)-1-methyl-1H-imidazo[4,5-b]pyridin-2-yl)amino)-1-methyl-5-(trifluoromethyl)pyridin-2(1H)-one] | < 0.01 |
| Cn1c(Nc2cc3n(n2)CCCC3(C)C)nc2ncc(Oc3cnn4cc(OCCO)ncc34)c(Cl)c21 [Example I-398, 2-((3-((7-chloro-2-((4,4-dimethyl-4,5,6,7-tetrahydropyrazolo[1,5-a]pyridin-2-yl)amino)-1-methyl-1H-imidazo[4,5-b]pyridin-6-yl)oxy)pyrazolo[1,5-a]pyrazin-6-yl)oxy)ethan-1-ol] | < 0.01 |
| COCc1n[nH]c2ncc(Oc3cnc4nc(Nc5cc6n(n5)CCCC6(F)F)n(C)c4c3C#N)cc12 [Example I-399, 2-((4,4-difluoro-4,5,6,7-tetrahydropyrazolo[1,5-a]pyridin-2-yl)amino)-6-((3-(methoxymethyl)-1H-pyrazolo[3,4-b]pyridin-5-yl)oxy)-1-methyl-1H-imidazo[4,5-b]pyridine-7-carbonitrile] | < 0.01 |

Second part, the molecule after the results:

| Kd [µM] | SMILES |
| --- | --- |
| < 0.01 | Cn1c(Nc2cc(C(F)(F)F)n(C3CC4(CCOCC4)C3)n2)nc2ncc(Oc3cnc4[nH]ncc4c3)c(C#N)c21 [Example I-400, 6-((1H-pyrazolo[3,4-b]pyridin-5-yl)oxy)-2-((1-(7-oxaspiro[3.5]nonan-2-yl)-5-(trifluoromethyl)-1H-pyrazol-3-yl)amino)-1-methyl-1H-imidazo[4,5-b]pyridine-7-carbonitrile] |
| 0.01 to 0.05 | Cn1c(Nc2cc(C(F)(F)F)n(C3CC4(CCOCC4)C3)n2)nc2ncc(Oc3cnc4[nH]ccc4c3)c(C#N)c21 [Example I-401, 6-((1H-pyrrolo[2,3-b]pyridin-5-yl)oxy)-2-((1-(7-oxaspiro[3.5]nonan-2-yl)-5-(trifluoromethyl)-1H-pyrazol-3-yl)amino)-1-methyl-1H-imidazo[4,5-b]pyridine-7-carbonitrile] |
| < 0.01 | Cn1cc(C(F)(F)F)cc(Nc2nc3ncc(Oc4cnn5ccnc(N[C@@H]6CCOC6)c45)c(Cl)c3n2C)c1=O [Example I-402, (R)-3-((7-chloro-1-methyl-6-((4-((tetrahydrofuran-3-yl)amino)pyrazolo[1,5-a]pyrazin-3-yl)oxy)-1H-imidazo[4,5-b]pyridin-2-yl)amino)-1-methyl-5-(trifluoromethyl)pyridin-2(1H)-one] |
| < 0.01 | Cn1cc(C(F)(F)F)cc(Nc2nc3ncc(Oc4cnn5cc(NCCN6CCC(F)(F)C6)ncc45)c(Cl)c3n2C)c1=O [Example I-403, 3-((7-chloro-6-((6-((2-(3,3-difluoropyrrolidin-1-yl)ethyl)amino)pyrazolo[1,5-a]pyrazin-3-yl)oxy)-1-methyl-1H-imidazo[4,5-b]pyridin-2-yl)amino)-1-methyl-5-(trifluoromethyl)pyridin-2(1H)-one] |
| 0.01 to 0.05 | CNc1cn2ncc(Oc3cnc4nc(Nc5cc(C(F)(F)F)cn(C)c5=O)n(C)c4c3)c2cn1 [Example I-404, 1-methyl-3-((1-methyl-6-((6-(methylamino)pyrazolo[1,5-a]pyrazin-3-yl)oxy)-1H-imidazo[4,5-b]pyridin-2-yl)amino)-5-(trifluoromethyl)pyridin-2(1H)-one] |
